Patent US11649255B2, “Indazoles as hematopoietic progenitor kinase 1 (HPK1) inhibitors and methods using same” (1st Biotherapeutics, Inc., priority 2020, dated 2023)

Molecular target: recombinant human HPK1 (Homo sapiens (Human), UniProt Q92918)
Assay: HPK1 kinase assay (ADP-Glo)
Assay type: biochemical
Details: 25 μM ATP, MBP substrate
Procedure: HPK1 kinase activity was measured by Promega's ADP-Glo™ kinase assay. In this assay, 5 ng of recombinant human HPK1 (signalchem) is incubated with 5 μL of compounds (0.5% DMSO), 5 μL of MBP (0.5 μg/μl) and 5 μL of ATP (25 μM) in buffer (40 mM Tris, 7.5; 20 mM MgCl2; 0.1 mg/ml BSA; 5 μM DTT). The assay was started by incubating the reaction mixture in a 96-well plate at 30′ C for 40 minutes. After the incubation, 25 uL ADP-Glo reagent was added and the reaction was incubated at room temperature for 40-min to stop the reaction and degrade residual ATP. The ADP product was then converted to ATP by adding 50 uL per well of detection reagent. Luminescence was detected after 30-min room temperature incubation with the Molecular device I3X plate reader. The IC50 values were calculated from a series of percent inhibition values determined at a range of inhibitor concentration using software routines as implemented in the GraphPad Prism 7 software and SigmaPlot13.0.

Sequence of recombinant human HPK1 (Q92918 whole entry): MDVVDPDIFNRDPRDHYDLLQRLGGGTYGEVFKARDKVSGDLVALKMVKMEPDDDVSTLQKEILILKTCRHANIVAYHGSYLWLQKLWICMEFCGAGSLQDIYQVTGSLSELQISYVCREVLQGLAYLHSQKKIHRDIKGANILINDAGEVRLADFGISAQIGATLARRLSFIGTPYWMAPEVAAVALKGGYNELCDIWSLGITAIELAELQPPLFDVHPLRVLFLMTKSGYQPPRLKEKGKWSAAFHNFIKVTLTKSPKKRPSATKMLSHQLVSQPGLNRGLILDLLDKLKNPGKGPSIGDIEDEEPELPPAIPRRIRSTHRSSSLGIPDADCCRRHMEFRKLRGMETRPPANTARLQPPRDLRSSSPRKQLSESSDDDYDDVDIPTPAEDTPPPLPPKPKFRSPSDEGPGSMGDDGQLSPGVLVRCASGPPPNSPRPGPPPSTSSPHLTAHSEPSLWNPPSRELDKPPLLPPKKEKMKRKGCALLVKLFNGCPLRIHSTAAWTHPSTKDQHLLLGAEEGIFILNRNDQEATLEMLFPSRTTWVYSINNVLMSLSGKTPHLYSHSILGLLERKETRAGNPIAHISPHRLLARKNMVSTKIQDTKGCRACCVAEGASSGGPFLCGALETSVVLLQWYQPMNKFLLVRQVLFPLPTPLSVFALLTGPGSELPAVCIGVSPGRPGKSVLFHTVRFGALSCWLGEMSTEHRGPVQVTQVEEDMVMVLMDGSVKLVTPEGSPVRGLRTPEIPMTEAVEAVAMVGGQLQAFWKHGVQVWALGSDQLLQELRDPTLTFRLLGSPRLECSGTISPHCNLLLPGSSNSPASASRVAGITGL

| Structure (SMILES) | IC50 |
| --- | --- |
| CC(C)c1c(F)c(Cl)c(-c2ccc3nc(NC(=O)[C@@H]4C[C@@H]4F)cn3c2)c2cn[nH]c12 [Example 405, (1S,2S)-N-(6-(5-chloro-6-fluoro-7-isopropyl-1H-indazol-4-yl)imidazo[1,2-a]pyridin-2-yl)-2-fluorocyclopropane-1-carboxamide] | < 100 nM |
| CN(C)c1c(F)cc(-c2ccc3nc(NC(=O)[C@@H]4C[C@@H]4F)cn3c2)c2cn[nH]c12 [Example 335, (1S,2S)-N-(6-(7-(dimethylamino)-6-fluoro-1H-indazol-4-yl)imidazo[1,2-a]pyridin-2-yl)-2-fluorocyclopropane-1-carboxamide] | < 100 nM |
| NCC1CCN(c2c(F)c(Cl)c(-c3ccc4nc(NC(=O)[C@@H]5C[C@@H]5F)sc4c3)c3cn[nH]c23)C1 (stereo partly drawn) [Example 91, (1S,2S)-N-(6-(7-(3-(aminomethyl)pyrrolidin-1-yl)-5-chloro-6-fluoro-1H-indazol-4-yl)benzo[d]thiazol-2-yl)-2-fluorocyclopropanecarboxamide] | 101 to 500 nM |
| C[C@H](c1c(F)c(Cl)c(-c2ccc3nc(NC(=O)[C@@H]4C[C@@H]4F)cn3c2)c2cn[nH]c12)n1ncnn1 [Example 407, (1S,2S)-N-(6-(7-((R)-1-(2H-tetrazol-2-yl)ethyl)-5-chloro-6-fluoro-1H-indazol-4-yl)imidazo[1,2-a]pyridin-2-yl)-2-fluorocyclopropane-1-carboxamide] | < 100 nM |
| Nc1c(F)cc2[nH]ncc2c1-c1ccc2nc(NC(=O)[C@@H]3C[C@@H]3F)sc2n1 [Example 151, (1S,2S)-N-(5-(5-amino-6-fluoro-1H-indazol-4-yl)thiazolo[5,4-b]pyridin-2-yl)-2-fluorocyclopropane-1-carboxamide] | > 1000 nM |
| CN(C)CCOc1ccc2[nH]ncc2c1-c1ccc2nc(NC(=O)[C@@H]3C[C@@H]3F)sc2c1 [Example 31, (1S,2S)-N-(6-(5-(2-(dimethylamino)ethoxy)-1H-indazol-4-yl)benzo[d]thiazol-2-yl)-2-fluorocyclopropane-1-carboxamide] | > 1000 nM |

Next, values leading:

| IC50 | Structure (SMILES) |
| --- | --- |
| < 100 nM | CNC(=O)OCCN(C)c1c(F)c(C)c(-c2ccn3nc(NC(=O)[C@@H]4C[C@@H]4F)cc3c2)c2cn[nH]c12 [Example 580, 2-((6-fluoro-4-(2-((1S,2S)-2-fluorocyclopropane-1-carboxamido)pyrazolo[1,5-a]pyridin-5-yl)-5-methyl-1H-indazol-7-yl)(methyl)amino)ethyl methylcarbamate] |
| < 100 nM | NC1CCC(Nc2c(F)c(Cl)c(-c3ccn4nc(NC(=O)[C@@H]5C[C@@H]5F)cc4c3)c3cn[nH]c23)CC1 (stereo partly drawn) [Example 515, (1S,2S)-N-(5-(7-((4-aminocyclohexyl)amino)-5-chloro-6-fluoro-1H-indazol-4-yl)pyrazolo[1,5-a]pyridin-2-yl)-2-fluorocyclopropane-1-carboxamide] |
| < 100 nM | Cn1nnnc1-c1c(F)c(Cl)c(-c2ccn3nc(NC(=O)[C@@H]4C[C@@H]4F)cc3c2)c2cn[nH]c12 [Example 594, (1S,2S)-N-(5-(5-chloro-6-fluoro-7-(1-methyl-1H-tetrazol-5-yl)-1H-indazol-4-yl)pyrazolo[1,5-a]pyridin-2-yl)-2-fluorocyclopropane-1-carboxamide] |
| < 100 nM | CN(C)C1CCC(Nc2c(F)c(Cl)c(-c3ccn4nc(NC(=O)[C@@H]5C[C@@H]5F)cc4c3)c3cn[nH]c23)CC1 (stereo partly drawn) [Example 512, (1S,2S)-N-(5-(5-chloro-7-((4-(dimethylamino)cyclohexyl)amino)-6-fluoro-1H-indazol-4-yl)pyrazolo[1,5-a]pyridin-2-yl)-2-fluorocyclopropane-1-carboxamide] |
| < 100 nM | CC(C)(C)OC(=O)NC1CCC(Nc2c(F)c(Cl)c(-c3ccn4nc(NC(=O)[C@@H]5C[C@@H]5F)cc4c3)c3cn[nH]c23)CC1 (stereo partly drawn) [Example 516, tert-butyl (4-((5-chloro-6-fluoro-4-(2-((1S,2S)-2-fluorocyclopropane-1-carboxamido)pyrazolo[1,5-a]pyridin-5-yl)-1H-indazol-7-yl)amino)cyclohexyl)carbamate] |
